Measured values as given in patent US20100267561A1, “HERBICIDAL PYRIDAZINONE DERIVATIVES” (priority 2007, published 2010).

Legend:
Type in all cases: in vivo
[1] = tested on: woolly cupgrass (Eriochloa villosa); assay: Test B pre-/postemergence plant response
Summary of the method: (§1)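 Preemergence and postemergence (plants 2-18 cm, 1- to 4-leaf stage) applications used test chemicals in a non-phytotoxic solvent with surfactant. Plants were held in a greenhouse 13 to 15 days, then rated visually against controls on a 0-100 scale (0 no effect, 100 complete control).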

[2] = tested on: cocklebur (Xanthium strumarium); assay: Test B pre-/postemergence plant response; conditions: for Cocklebur plant response rating: 8 g ai/ha
Summary of the method: as §1

[3] = tested on: large crabgrass (Digitaria sanguinalis); assay: Test B pre-/postemergence plant response
Summary of the method: as §1

[4] = tested on: soybean (Glycine max); assay: Test B pre-/postemergence plant response
Summary of the method: as §1

[5] = tested on: wheat (Triticum aestivum); assay: Test B pre-/postemergence plant response
Summary of the method: as §1

[6] = tested on: bermudagrass (Cynodon dactylon); assay: Test B pre-/postemergence plant response; conditions: for Bermudagrass plant response rating: 8 g ai/ha
Summary of the method: as §1

[7] = tested on: downy bromegrass (Bromus tectorum); assay: Test B pre-/postemergence plant response; conditions: for Bromegrass, Downy plant response rating: 8 g ai/ha
Summary of the method: as §1

[8] = tested on: catchweed bedstraw (Galium aparine); assay: Test B pre-/postemergence plant response; conditions: Preemergence
Summary of the method: as §1

[9] = tested on: velvetleaf (Abutilon theophrasti); assay: Test B pre-/postemergence plant response
Summary of the method: as §1

[10] = tested on: wild oat (Avena fatua); assay: Test B pre-/postemergence plant response
Summary of the method: as §1

[11] = tested on: ducksalad (Heteranthera limosa); assay: Test B flooded paddy test plant response
Summary of the method: (§2)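 Rice, umbrella sedge, ducksalad and barnyardgrass at 2-leaf stage; pots flooded to 3 cm, compounds applied into paddy water, depth held throughout. Greenhouse 13 to 15 days, then visual rating vs untreated controls on 0–100 scale (0 no effect, 100 complete control); dash means no test result.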

[12] = tested on: umbrella sedge (Cyperus difformis); assay: Test B flooded paddy test plant response
Summary of the method: as §2

[13] = tested on: rice (Oryza sativa); assay: Test B flooded paddy test plant response
Summary of the method: as §2

[14] = tested on: barnyardgrass (Echinochloa crus-galli); assay: Test B flooded paddy test plant response
Summary of the method: as §2

[15] = 8 g ai/ha, postemergence, 0-100 scale
[16] = Postemergence, 16 g ai/ha, scale 0 to 100
[17] = Postemergence, 31 g ai/ha, scale 0 to 100, 0 no effect, 100 complete control
[18] = Postemergence, 62 g ai/ha, scale 0 to 100
[19] = Preemergence, 16 g ai/ha, scale 0 to 100 (0 no effect, 100 complete control)
[20] = Preemergence, 62 g ai/ha, scale 0 to 100
[21] = Preemergence, 8 g ai/ha, scale 0 to 100
[22] = Preemergence, 31 g ai/ha, 0 to 100 scale, 0 no effect, 100 complete control
[23] = Preemergence, scale 0 to 100 (0 no effect, 100 complete control)
[24] = Flood (flooded paddy test), 62 g ai/ha, scale 0 to 100, 0 no effect, 100 complete control
[25] = Flood (flooded paddy test), 125 g ai/ha, scale 0 to 100, 0 no effect, 100 complete control
[26] = Flood (flooded paddy test), 250 g ai/ha, scale 0 to 100, 0 no effect, 100 complete control
[27] = Flood, 31 g ai/ha, scale 0 to 100
[28] = Postemergence, 31 g ai/ha, scale 0 to 100
[29] = Postemergence, 62 g ai/ha, scale 0 to 100, 0 no effect, 100 complete control
[30] = Preemergence, 31 g ai/ha, scale 0 to 100 (0 no effect, 100 complete control)
[31] = Preemergence, 62 g ai/ha, 0 to 100 scale, 0 no effect, 100 complete control
[32] = Preemergence, 16 g ai/ha, scale 0 to 100
[33] = 16 g ai/ha, postemergence, 0-100 scale

CCc1cc(-c2ccc(Cl)cc2)nn1-c1c(O)cnn(C)c1=O [Compound 21]
Cupgrass, Woolly plant response rating [1, 15]: 100 | Plant response rating, Cupgrass, Woolly [1, 16]: 100 | Plant response rating, Cupgrass, Woolly [1, 17]: 100 | Plant response rating, Cupgrass, Woolly [1, 18]: 100 | Plant response rating, Cupgrass, Woolly [1, 19]: 100 | Plant response rating, Cupgrass, Woolly [1, 20]: 100 | Cupgrass, Woolly plant response rating [1, 21]: 60 | Cocklebur plant response rating ([2]; postemergence, 0-100 scale): 0 | Plant response rating, Cocklebur [2, 16]: 0 | Plant response rating, Cocklebur [2, 17]: 0 | Plant response rating, Cocklebur [2, 18]: 0 | Plant response rating, Cocklebur [2, 19]: 0 | Plant response rating, Cocklebur [2, 22]: 0 | Plant response rating, Cocklebur [2, 20]: 0 | Cocklebur plant response rating ([2]; Preemergence, scale 0 to 100): 0 | Crabgrass, Large plant response rating [3, 15]: 95 | Plant response rating, Crabgrass, Large [3, 16]: 100 | Plant response rating, Crabgrass, Large [3, 17]: 100 | Plant response rating, Crabgrass, Large [3, 18]: 100 | Plant response rating, Crabgrass, Large [3, 19]: 80 | Plant response rating, Crabgrass, Large [3, 22]: 80 | Plant response rating, Crabgrass, Large [3, 20]: 100 | Crabgrass, Large plant response rating [3, 21]: 0 | Soybean plant response rating [4, 15]: 0 | Plant response rating, Soybean [4, 16]: 0 | Plant response rating, Soybean [4, 17]: 0 | Plant response rating, Soybean [4, 18]: 10 | Plant response rating, Soybean [4, 22]: 0 | Wheat plant response rating [5, 15]: 50 | Plant response rating, Wheat [5, 16]: 85 | Plant response rating, Wheat [5, 17]: 90 | Plant response rating, Wheat [5, 18]: 100 | Plant response rating, Wheat [5, 19]: 30 | Plant response rating, Wheat [5, 22]: 85 | Plant response rating, Wheat [5, 20]: 95 | Wheat plant response rating [5, 21]: 0 | Bermudagrass plant response rating ([6]; postemergence, 0-100 scale): 40 | Plant response rating, Bermudagrass [6, 16]: 60 | Plant response rating, Bermudagrass [6, 17]: 80 | Plant response rating, Bermudagrass [6, 18]: 100 | Bermudagrass plant response rating [6, 23]: 60 | Plant response rating, Bermudagrass [6, 19]: 80 | Plant response rating, Bermudagrass [6, 22]: 85 | Plant response rating, Bermudagrass [6, 20]: 100 | Bromegrass, Downy plant response rating ([7]; postemergence, 0-100 scale): 55 | Plant response rating, Bromegrass, Downy [7, 16]: 55 | Plant response rating, Bromegrass, Downy [7, 17]: 80 | Plant response rating, Bromegrass, Downy [7, 18]: 85 | Plant response rating, Bromegrass, Downy [7, 19]: 50 | Plant response rating, Bromegrass, Downy [7, 22]: 60 | Plant response rating, Bromegrass, Downy [7, 20]: 100 | Bromegrass, Downy plant response rating ([7]; Preemergence, scale 0 to 100): 0 | Plant response rating, Galium ([8]; 16 g ai/ha, scale 0 to 100 (0 no effect, 100 complete control)): 0 | Plant response rating, Galium ([8]; 31 g ai/ha, 0 to 100 scale, 0 no effect, 100 complete control): 0 | Plant response rating, Galium ([8]; 62 g ai/ha, scale 0 to 100): 90 | Galium plant response rating ([8]; 8 g ai/ha, scale 0 to 100): 0 | Velvetleaf plant response rating [9, 15]: 0 | Plant response rating, Velvetleaf [9, 16]: 0 | Plant response rating, Velvetleaf [9, 17]: 0 | Plant response rating, Velvetleaf [9, 18]: 0 | Plant response rating, Velvetleaf [9, 22]: 0 | Plant response rating, Velvetleaf [9, 20]: 0 | Velvetleaf plant response rating [9, 21]: 0 | Oat, Wild plant response rating [10, 15]: 98 | Plant response rating, Oat, Wild [10, 16]: 100 | Plant response rating, Oat, Wild [10, 17]: 100 | Plant response rating, Oat, Wild [10, 18]: 100 | Plant response rating, Oat, Wild [10, 19]: 85 | Plant response rating, Oat, Wild [10, 22]: 90 | Plant response rating, Oat, Wild [10, 20]: 95 | Oat, Wild plant response rating [10, 21]: 65 | Plant response rating, Ducksalad [11, 24]: 0 | Plant response rating, Ducksalad [11, 25]: 0 | Plant response rating, Ducksalad [11, 26]: 65 | Plant response rating, Ducksalad [11, 27]: 0 | Plant response rating, Sedge, Umbrella [12, 24]: 0 | Plant response rating, Sedge, Umbrella [12, 25]: 0 | Plant response rating, Sedge, Umbrella [12, 26]: 30 | Plant response rating, Sedge, Umbrella [12, 27]: 0 | Plant response rating, Rice [13, 24]: 0 | Plant response rating, Rice [13, 25]: 20 | Plant response rating, Rice [13, 26]: 70 | Plant response rating, Rice [13, 27]: 0 | Plant response rating, Barnyardgrass [14, 24]: 75 | Plant response rating, Barnyardgrass [14, 25]: 80 | Plant response rating, Barnyardgrass [14, 26]: 100 | Plant response rating, Barnyardgrass [14, 27]: 55

CCc1cc(-c2ccc(C(F)(F)F)cc2)nn1-c1c(O)c(OC)nn(C)c1=O [Compound 66]
Cupgrass, Woolly plant response rating [1, 15]: 90 | Plant response rating, Cupgrass, Woolly [1, 16]: 95 | Plant response rating, Cupgrass, Woolly [1, 28]: 100 | Plant response rating, Cupgrass, Woolly [1, 29]: 100 | Plant response rating, Cupgrass, Woolly [1, 30]: 90 | Plant response rating, Cupgrass, Woolly [1, 31]: 98 | Cupgrass, Woolly plant response rating [1, 21]: 0 | Cupgrass, Woolly plant response rating [1, 32]: 80 | Cocklebur plant response rating ([2]; postemergence, 0-100 scale): 0 | Plant response rating, Cocklebur [2, 16]: 0 | Plant response rating, Cocklebur [2, 28]: 0 | Plant response rating, Cocklebur [2, 29]: 0 | Plant response rating, Cocklebur [2, 19]: 0 | Plant response rating, Cocklebur [2, 30]: 0 | Plant response rating, Cocklebur [2, 31]: 0 | Cocklebur plant response rating ([2]; Preemergence, scale 0 to 100): 0 | Crabgrass, Large plant response rating [3, 15]: 70 | Plant response rating, Crabgrass, Large [3, 16]: 85 | Plant response rating, Crabgrass, Large [3, 28]: 98 | Plant response rating, Crabgrass, Large [3, 29]: 100 | Plant response rating, Crabgrass, Large [3, 30]: 60 | Plant response rating, Crabgrass, Large [3, 31]: 80 | Crabgrass, Large plant response rating [3, 21]: 0 | Crabgrass, Large plant response rating [3, 32]: 0 | Soybean plant response rating [4, 15]: 0 | Soybean plant response rating [4, 33]: 0 | Plant response rating, Soybean [4, 28]: 0 | Plant response rating, Soybean [4, 29]: 0 | Plant response rating, Soybean [4, 30]: 0 | Plant response rating, Soybean [4, 31]: 0 | Soybean plant response rating [4, 21]: 0 | Soybean plant response rating [4, 32]: 0 | Wheat plant response rating [5, 15]: 95 | Wheat plant response rating [5, 33]: 100 | Plant response rating, Wheat [5, 28]: 100 | Plant response rating, Wheat [5, 29]: 100 | Plant response rating, Wheat [5, 30]: 95 | Plant response rating, Wheat [5, 31]: 95 | Wheat plant response rating [5, 32]: 90 | Bermudagrass plant response rating ([6]; postemergence, 0-100 scale): 20 | Plant response rating, Bermudagrass [6, 16]: 98 | Plant response rating, Bermudagrass [6, 28]: 100 | Plant response rating, Bermudagrass [6, 29]: 100 | Bermudagrass plant response rating [6, 23]: 0 | Plant response rating, Bermudagrass [6, 19]: 85 | Plant response rating, Bermudagrass [6, 30]: 98 | Plant response rating, Bermudagrass [6, 31]: 100 | Bromegrass, Downy plant response rating ([7]; postemergence, 0-100 scale): 80 | Plant response rating, Bromegrass, Downy [7, 16]: 95 | Plant response rating, Bromegrass, Downy [7, 28]: 98 | Plant response rating, Bromegrass, Downy [7, 29]: 98 | Plant response rating, Bromegrass, Downy [7, 19]: 85 | Plant response rating, Bromegrass, Downy [7, 30]: 100 | Plant response rating, Bromegrass, Downy [7, 31]: 100 | Bromegrass, Downy plant response rating ([7]; Preemergence, scale 0 to 100): 85 | Plant response rating, Galium ([8]; 31 g ai/ha, scale 0 to 100 (0 no effect, 100 complete control)): 0 | Plant response rating, Galium ([8]; 62 g ai/ha, 0 to 100 scale, 0 no effect, 100 complete control): 0 | Galium plant response rating ([8]; 8 g ai/ha, scale 0 to 100): 0 | Galium plant response rating ([8]; 16 g ai/ha, scale 0 to 100): 0 | Velvetleaf plant response rating [9, 15]: 0 | Velvetleaf plant response rating [9, 33]: 0 | Plant response rating, Velvetleaf [9, 28]: 0 | Plant response rating, Velvetleaf [9, 29]: 0 | Plant response rating, Velvetleaf [9, 30]: 0 | Plant response rating, Velvetleaf [9, 31]: 0 | Velvetleaf plant response rating [9, 21]: 0 | Velvetleaf plant response rating [9, 32]: 0 | Oat, Wild plant response rating [10, 15]: 95 | Oat, Wild plant response rating [10, 33]: 100 | Plant response rating, Oat, Wild [10, 28]: 100 | Plant response rating, Oat, Wild [10, 29]: 100 | Plant response rating, Oat, Wild [10, 30]: 95 | Plant response rating, Oat, Wild [10, 31]: 100 | Oat, Wild plant response rating [10, 21]: 90 | Oat, Wild plant response rating [10, 32]: 95 | Plant response rating, Ducksalad [11, 24]: 0 | Plant response rating, Ducksalad [11, 25]: 0 | Plant response rating, Ducksalad [11, 26]: 0 | Plant response rating, Ducksalad [11, 27]: 0 | Plant response rating, Sedge, Umbrella [12, 24]: 0 | Plant response rating, Sedge, Umbrella [12, 25]: 0 | Plant response rating, Sedge, Umbrella [12, 26]: 0 | Plant response rating, Sedge, Umbrella [12, 27]: 0 | Plant response rating, Rice [13, 24]: 0 | Plant response rating, Rice [13, 25]: 0 | Plant response rating, Rice [13, 26]: 30 | Plant response rating, Rice [13, 27]: 0 | Plant response rating, Barnyardgrass [14, 24]: 0 | Plant response rating, Barnyardgrass [14, 25]: 20 | Plant response rating, Barnyardgrass [14, 26]: 20 | Plant response rating, Barnyardgrass [14, 27]: 0
